Source: patent US20130245081A1, “Compositions and Methods for Treating Amyotrophic Lateral Sclerosis” (priority 2009, published 2013)

Test: clinical
Details: for AUC(0-t) / AUC(0-inf) / Cmax / Tmax / Vd/F / half-life / CL renal: both, human, oral; for AUC(0-t) / AUC(0-inf) / Cmax / Tmax / Vd/F / half-life: plasma; for AUC(0-t): AUC0-t; for AUC(0-inf): AUCinf; for Vd/F: Vz/F; for CL renal: urine and plasma, CLr
Source text: A total of 54 subjects (30 subjects in Study CL001 and 24 subjects in Study CL002) were enrolled. Healthy, non-smoking, male and female subjects 30 to 60 years of age, inclusive, with normal or clinically acceptable physical examination and electrocardiogram (ECG) findings, systolic (90 to 140 mmHg) and diastolic (50 to 90 mmHg) blood pressure, and resting heart rate (50 to 100 bpm) who were willing to provide signed, written informed consent were eligible for enrollment. Female volunteers had to be of non-childbearing potential with negative pregnancy test results at screening and clinic check-in. Subjects with any history of neurodegenerative illnesses were excluded. The use of over-the-counter medications within 7 days prior to enrollment or prescription medications within 12 weeks prior to enrollment was prohibited.
In the first study, subjects were enrolled in 3 successive double-blind, placebo-controlled panels of 8 subjects (n=6 active, n=2 placebo per panel).
Matching placebo capsules contained equivalent weights of microcrystalline cellulose. Capsules were administered orally with water. […] Subjects in the fasted cohorts were required to fast overnight for a minimum of 10 hours before dose administration. Subjects in the food cohort were required to fast overnight for a minimum of 10 hours before dose administration, with exception of the high fat/high calorie meal that was administered 30 minutes prior to drug administration. […] All available safety data were reviewed under blinded conditions to monitor for serious safety or tolerability events prior to proceeding with dose escalations.
Blood samples were collected into a 10 mL dipotassium ethylenediaminetetraacetic acid (K2-EDTA) Vacutainer® via an indwelling peripheral intravenous cannula or by direct venipuncture. Within 15 minutes of collection, the samples were centrifuged at 3000 rpm for 10 minutes at 4° C. After centrifugation, the plasma was divided into 2 aliquots of at least 1.5 mL each, placed into polypropylene containers, frozen, and stored at −20° C. until they were shipped for analysis.
Urine collected in each interval was well mixed, the pH was recorded, the total volume (or the weight and specific gravity) was recorded, and 2 aliquots of 20 mL each were collected into polypropylene containers and stored at −20° C. until they were shipped for analysis. All plasma and urine sample were shipped frozen on dry ice in 2 separate shipments per group (1 set of aliquots per shipment) to Eurofins AvTech Laboratories Inc. (Kalamazoo, Mich.) for bioanalytical analysis.
Plasma and urine concentrations were measured using validated liquid chromatography/mass spectrometry/mass spectrometry (LC/MS/MS) methods. […] The analytical procedure for analysis of plasma samples used a 100 μL aliquot of K2EDTA human plasma. The plasma sample was spiked with 20 μL of working internal standard solution and 20 μL of type 1 water for subject samples and QCs and 20 μL of the appropriate intermediate standard solution for standards. One hundred microliters ([…]) of 50% ammonium hydroxide solution was added to the sample followed by vortex mixing. One milliliter (1 mL) of tertbutyl methyl ether was then added and the sample was vortexed to extract the analyte and internal standard into the organic layer, followed by separation using flash freezing. The organic layer was decanted, evaporated to dryness, and the sample was reconstituted with 0.5 mL of reconstitution solution (0.1% ammonium hydroxide in 50:50 methanol; type 1 water (v/v/v)). A 10 μL aliquot of this reconstituted sample was injected into an LC/MS/MS system for analysis. […] The analytical procedure for analysis of urine samples was essentially similar to the plasma procedure.

CCCN[C@@H]1CCc2nc(N)sc2C1 [dexpramipexole, (6R)-2-amino-4,5,6,7-tetrahydro-6-(propylamino)benzothiazole]
eliminated in urine as unchanged parent drug (both Phase 1 studies): 84-90 % of dose
AUC(0-t) (50 mg, single 50 mg, fasted): 989 ± 295 ng·h/mL
AUC(0-inf) (50 mg, single 50 mg, fasted): 1250 ± 347 ng·h/mL
Cmax (50 mg, single 50 mg, fasted): 125 ± 22 ng/mL
Tmax (50 mg, Tmax (median), single 50 mg, fasted): 2.04 h
Vd/F (50 mg, single 50 mg, fasted): 294 ± 46.2 L
AUC(0-t) (150 mg, single 150 mg, fasted): 3360 ± 780 ng·h/mL
AUC(0-t) (150 mg, single 150 mg, fed): 3080 ± 934 ng·h/mL
AUC(0-inf) (150 mg, single 150 mg, fasted): 3780 ± 1010 ng·h/mL
AUC(0-inf) (150 mg, single 150 mg, fed): 3380 ± 957 ng·h/mL
Cmax (150 mg, single 150 mg, fasted): 360 ± 60.4 ng/mL
Cmax (150 mg, single 150 mg, fed): 315 ± 61.6 ng/mL
Tmax (150 mg, Tmax (median), single 150 mg, fasted): 2.04 h
Tmax (150 mg, Tmax (median), single 150 mg, fed): 2.58 h
Vd/F (150 mg, single 150 mg, fasted): 311 ± 68.4 L
Vd/F (150 mg, single 150 mg, fed): 308 ± 55.9 L
half-life (150 mg, t1/2, single 150 mg, fed): 6.33 ± 1.49 h
AUC(0-t) (300 mg, single 300 mg, fasted): 8340 ± 3200 ng·h/mL
AUC(0-inf) (300 mg, single 300 mg, fasted): 8620 ± 3260 ng·h/mL
Cmax (300 mg, single 300 mg, fasted): 781 ± 158 ng/mL
Tmax (300 mg, Tmax (median), single 300 mg, fasted): 1.98 h
Vd/F (300 mg, single 300 mg, fasted): 258 ± 73.5 L
half-life (300 mg, elimination t1/2, single 50, 150, 300 mg, fasted): 6.4 to 6.96 h
Tmax (Tmax, range over both Phase 1 studies, single and multiple doses): 1.75 to 2.58 h
half-life (t1/2, range over both Phase 1 studies, fasted conditions): 6.4 to 8.05 h
CL renal (50 mg, single 50 mg, fasted): 628 ± 149 mL/min
CL renal (150 mg, single 150 mg, fasted): 385 mL/min
CL renal (150 mg, single 150 mg, fed): 559 ± 140 mL/min
CL renal (300 mg, single 300 mg, fasted): 441 ± 159 mL/min
time of maximum concentrations after dosing (oral administration): 2 h
CL/F (single 50 mg, fasted): 527 ± 135 mL/min
Fe (single 50 mg, fasted): 94.7 ± 13.9 % dose
Ue (single 50 mg, fasted): 35.3 ± 5.19 mg
λz (single 50 mg, fasted): 0.1064 ± 0.0171 h⁻¹
CL/F (single 150 mg, fasted): 524 ± 146 mL/min
Fe (single 150 mg, fasted): 66.9 ± 44.8 % dose
Ue (single 150 mg, fasted): 74.8 ± 50.17 mg
λz (single 150 mg, fasted): 0.1001 ± 0.0087 h⁻¹
CL/F (single 150 mg, fed): 581 ± 127 mL/min
Fe (single 150 mg, fed): 86.6 ± 4.21 % dose
Ue (single 150 mg, fed): 96.9 ± 4.71 mg
λz (single 150 mg, fed): 0.1144 ± 0.0259 h⁻¹
CL/F (single 300 mg, fasted): 492 ± 194 mL/min
Fe (single 300 mg, fasted): 88.3 ± 12.5 % dose
Ue (single 300 mg, fasted): 198 ± 28.0 mg
λz (single 300 mg, fasted): 0.1151 ± 0.0309 h⁻¹
dose recovered as unchanged parent drug in the urine (single doses): Approximately 90%
